Where no end group is shown, it is not given here.
Assays:
[1] = Water solubility of delivery agent
[2] = in vivo
[3] = tested on: animal epiphyseal cartilage, rabbit and human cartilage; conditions: in vitro; cited from earlier work
cartilage = conditions: cited from earlier work
[4] = tested on: urinary C-terminal telopeptide of collagen type I (CTX-I); test: 3-month oral sCT treatment, 24 hours urinary CTX-I corrected for creatinine; assay type: in vivo, human; conditions: 1.0 mg sCT daily oral, 3-month treatment, compared to placebo group, p<0.001
Description: (§1) Women receive treatment with either daily (0.15, 0.4, 1.0, or 2.5 mg) orally dosed sCT (see below for pharmaceutical compositions) combined with eligen technology-based carrier molecule (200 mg), or placebo for 3 months. All participants receive a calcium supplement of 1000 mg plus 400 IU of vitamin D daily throughout the study. Efficacy parameters are 24 hours urinary C-terminal telopeptide of collagen type I (CTX-I) and CTX-II corrected for creatinine excretion assessed at baseline and after 3-month therapy.
(§2) C-telopeptide of type I collagen (CTX I) is considered to be a specific marker sensitive to bone resorption; conversely, type II collagen C-telopeptide (CTX-II) is considered to be a useful cartilage marker.

[5] = tested on: urinary collagen type II degradation products (CTX-II); test: 3-month oral sCT treatment, 24 hours urinary CTX-II corrected for creatinine; assay type: in vivo, human
Description: as §1, §2

Question: For O=C(O)CCCCCCCNC(=O)c1cc(Cl)ccc1O [5 CNAC, N-(5-chlorosalicyloyl)-8-aminocaprylic acid], which water solubility [1] is on record?
Answer: very water soluble

Question: With O=C(O)CCCCCCCCCNC(=O)c1ccccc1O [SNAD, N-(10-[2-hydroxybenzoyl]amino)decanoic acid] as the molecule, how does the “absorbed by the gastro-intestinal tract” value [2] read?
Answer: more than 90%

Question: What does the source list for “calcitonin (CGNLSTCMLGTYTQDFNKFHTFPQTAIGVGAP; ends and bridges not checked; cysteine pairing not given here; UniProt P01258 85-116, looked up) [origin not specified in cited studies]”?
Answer: effect on proteoglycan and collagen synthesis in cartilage [3]: stimulate proteoglycan and collagen synthesis; effect on cartilage (cartilage; another menisectomy model (Colombo 1983)): no effect on cartilage; effect on cartilage destruction (cartilage; rabbits treated with steroids, partial menisectomy or joint immobilization (Badurski 1991)): prevent cartilage destruction

Question: Which results are given for salmon calcitonin [sCT]?
Answer: reduction in 24-hours urinary CTX-I [4]: −41.0%; decrease in urinary CTX-II after 3-month treatment ([5]; 0.4 mg sCT daily oral, postmenopausal women, compared to placebo, p=0.04): −15.2%; decrease in urinary CTX-II after 3-month treatment ([5]; 1.0 mg sCT daily oral, postmenopausal women, compared to placebo, p=0.009): −19.7%; decrease in urinary CTX-II after 3-month treatment ([5]; 1.0 mg sCT, women in the highest tertile of baseline urinary CTX-II): −36.6%; decrease in urinary CTX-II after 3-month treatment ([5]; 1.0 mg sCT, women in the lowest tertile of baseline urinary CTX-II): −9.9%; decrease in urinary CTX-II after 3-month treatment ([5]; 2.5 mg sCT daily oral, postmenopausal women, compared to placebo, p=0.02): −17.5%; 24 hours urinary CTX-II response to oral sCT, dose relationship ([5]; 0.15, 0.4, 1.0, 2.5 mg daily, 3 months, ANOVA=0.012): clear and significant dose dependent relationship
